This note sets out measurements from patent US11957687B2 (REGENERON PHARMACEUTICALS, INC., priority 2019, dated 2024).

Data set [1] has as its target HSD17B13 (Homo sapiens (Human), UniProt Q7Z5P4). As to the kind of experiment: HSD17B13 enzymatic inhibition assay (150 nM or 50 nM HSD17B13). Conditions: 50 nM HSD17B13; read-out: Inhibition of 50 nM of HSD17B13 IC50. It is filed as biochemical.
Data set [2] is described as follows: Microsome stability assay, human liver microsomes. It is filed as in vitro ADME. Conditions: 1 μM compound, 0.5 mg/mL microsomal protein. The procedure: (§1) Compounds of the disclosure were screened in microsome stability assays. For the screen, test compounds were incubated at 37° C. with either human liver microsomes (Corning; #452117) or mouse liver microsomes (XenoTech; #M1000), pooled from multiple donors, at 1 μM in the presence of a NADPH regenerating system at 0.5 mg/mL microsomal protein. Positive controls included in the assay were testosterone (3A4 substrate), propafenone (2D6) and diclofenac (2C9). Samples were removed at different time points (0, 5, 10, 20, 30 and 60 minutes) and immediately mixed with cold acetonitrile containing internal standard (IS, 200 ng/mL tolbutamide and 200 ng/mL labetalol). Test compounds incubated with microsomes for 60 minutes without the NADPH regenerating system was also included. A single point for each test condition (n=1) was obtained, and samples were analyzed by LC/MS/MS. Disappearance of the test compound was assessed based on peak area ratios of analyte/IS (no standard curve).

The nature of data set [3]: Microsome stability assay, mouse liver microsomes. It is filed as in vitro ADME. Particulars: 1 μM compound, 0.5 mg/mL microsomal protein; for microsomal CLint at 1 μM / half-life at 1 μM / microsomal CLint at 1 h, 1 µM / half-life at 1 h, 1 µM: mouse, mouse liver microsomes, pooled, NADPH, 37° C.; for microsomal CLint at 1 μM / microsomal CLint at 1 h, 1 µM: read-out: Microsome Stability Mouse liver microsomes Cl; for half-life at 1 μM / half-life at 1 h, 1 µM: read-out: Microsome Stability Mouse liver microsomes T½. Here is the method:
as §1
In general terms: Liver microsomes are vesicles of endoplasmic reticulum, rich in cytochrome P450 enzymes.

[4] abbreviates: human, human liver microsomes, pooled, NADPH, 37° C., read-out: Microsome Stability Human liver microsomes Cl.
Setting [5] is: human, human liver microsomes, pooled, NADPH, 37° C., read-out: Microsome Stability Human liver microsomes T½.

Molecules are shown by their SMILES.

Sequence of HSD17B13 (Q7Z5P4 other isoform, or with tags, fused parts or gaps): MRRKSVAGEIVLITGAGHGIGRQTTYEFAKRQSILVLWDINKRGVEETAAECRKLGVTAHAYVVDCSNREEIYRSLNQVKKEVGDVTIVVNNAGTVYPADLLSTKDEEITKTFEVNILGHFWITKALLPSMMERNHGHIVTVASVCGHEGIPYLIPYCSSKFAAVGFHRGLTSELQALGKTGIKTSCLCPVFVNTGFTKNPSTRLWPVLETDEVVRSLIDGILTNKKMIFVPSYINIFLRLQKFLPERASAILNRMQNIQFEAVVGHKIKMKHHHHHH

As to `CCC[C@@H]1C[C@@H](NC(=O)c2ccc(C(F)(F)F)[nH]c2=O)c2ccc(C)cc2N1` [Compound 369, N-((2R,4R)-7-methyl-2-propyl-1,2,3,4-tetrahydroquinolin-4-yl)-2-oxo-6-(trifluoromethyl)-1,2-dihydropyridine-3-carboxamide], the IC50 in data set [1] was found to be 110 nM. Further, the “Microsome Stability Human liver microsomes % Remaining @60 min” value in data set [2] came out at 35.70%. In addition, in data set [2] (setting [4]), the microsomal CLint at 1 h, 1 µM worked out at 30.8 µL/min/mg. Also, the half-life at 1 h, 1 µM in data set [2] (setting [5]) came out at 45 min. For the same molecule, in data set [3], the “Microsome Stability Mouse liver microsomes % Remaining @60 min” value was 95.30%, the microsomal CLint at 1 μM is below 9.6 µL/min/mg and the half-life at 1 μM was above 145 min.
Regarding `Cc1ccc2c(c1)[C@H](NC(=O)c1ccc(C(F)(F)F)[nH]c1=O)C[C@@H](C)N2` [Compound 370, N-((2R,4R)-2,6-dimethyl-1,2,3,4-tetrahydroquinolin-4-yl)-2-oxo-6-(trifluoromethyl)-1,2-dihydropyridine-3-carboxamide], the IC50 in data set [1] turned out to be 270 nM. In data set [2], the “Microsome Stability Human liver microsomes % Remaining @60 min” value is given as 86.70%. For the same molecule, the microsomal CLint at 1 μM in data set [2] (setting [4]) is below 9.6 µL/min/mg. For the same molecule, the half-life at 1 μM in data set [2] (setting [5]) is above 145 min. Also, in data set [3], the “Microsome Stability Mouse liver microsomes % Remaining @60 min” value came out at 99.10%, the microsomal CLint at 1 μM is below 9.6 µL/min/mg and the half-life at 1 μM was above 145 min.
`Cc1ccc2c(c1)SC(C)CC2NC(=O)c1ccc(C(F)(F)F)[nH]c1=O` (stereo not drawn) [Compound 385, N-(2,7-dimethylthiochroman-4-yl)-2-oxo-6-(trifluoromethyl)-1,2-dihydropyridine-3-carboxamide]: in data set [1], the IC50 amounted to 40 nM. Also, the “Microsome Stability Human liver microsomes % Remaining @60 min” value in data set [2] is listed as 1%. For the same molecule, the microsomal CLint at 1 h, 1 µM was 643 µL/min/mg in data set [2] (setting [4]) and 27 µL/min/mg in data set [3]. For the same molecule, the half-life at 1 h, 1 µM in data set [2] (setting [5]) is 2.15 min; in data set [3], 51.3 min. For the same molecule, the “Microsome Stability Mouse liver microsomes % Remaining @60 min” value in data set [3] was determined as 43%.
With `CCC1Cc2cc(OC)ccc2C(NC(=O)c2ccc(C(F)(F)F)[nH]c2=O)C1` (stereo not drawn) [Compound 390, N-(3-ethyl-6-methoxy-1,2,3,4-tetrahydronaphthalen-1-yl)-2-oxo-6-(trifluoromethyl)-1,2-dihydropyridine-3-carboxamide], the IC50 in data set [1] is 70 nM. For the same molecule, the “Microsome Stability Human liver microsomes % Remaining @60 min” value in data set [2] is 11%. Besides, the microsomal CLint at 1 h, 1 µM in data set [2] (setting [4]) was 151 µL/min/mg. Besides, in data set [2] (setting [5]), the half-life at 1 h, 1 µM stood at 9.15 min. Besides, in data set [3], the “Microsome Stability Mouse liver microsomes % Remaining @60 min” value amounted to 62.80%; the microsomal CLint at 1 h, 1 µM is 16.8 µL/min/mg; the half-life at 1 h, 1 µM is 82.3 min.
As to `Cc1ccc(C(CC2CC2)NC(=O)c2ccc(C(F)(F)F)[nH]c2=O)cc1` (stereo not drawn) [Compound 401, N-(2-cyclopropyl-1-(p-tolyl)ethyl)-2-oxo-6-(trifluoromethyl)-1,2-dihydropyridine-3-carboxamide], in data set [1], the IC50 was found to be 350 nM. Further, the “Microsome Stability Human liver microsomes % Remaining @60 min” value in data set [2] is reported as 1.80%. The microsomal CLint at 1 h, 1 µM in data set [2] (setting [4]) was determined as 463 µL/min/mg. In addition, in data set [2] (setting [5]), the half-life at 1 h, 1 µM turned out to be 2.99 min. For the same molecule, in data set [3], the “Microsome Stability Mouse liver microsomes % Remaining @60 min” value came out at 4%; the microsomal CLint at 1 h, 1 µM was found to be 182 µL/min/mg; the half-life at 1 h, 1 µM amounted to 7.61 min.
On to `CCC1CCc2cc(C)ccc2C1NC(=O)c1ccc(C(F)(F)F)[nH]c1=O` (stereo not drawn) [Compound 543, N-(2-ethyl-6-methyl-1,2,3,4-tetrahydronaphthalen-1-yl)-2-oxo-6-(trifluoromethyl)-1,2-dihydropyridine-3-carboxamide], for which, in data set [1], the IC50 came out at 50 nM. In data set [2], the “Microsome Stability Human liver microsomes % Remaining @60 min” value was 0.36%. The microsomal CLint at 1 h, 1 µM in data set [2] (setting [4]) stood at 364 µL/min/mg. Further, the half-life at 1 h, 1 µM in data set [2] (setting [5]) was found to be 3.81 min. For the same molecule, in data set [3], the “Microsome Stability Mouse liver microsomes % Remaining @60 min” value was determined as 25.30%; the microsomal CLint at 1 h, 1 µM was determined as 43.6 µL/min/mg; the half-life at 1 h, 1 µM was determined as 31.8 min.

For orientation: IC50 means the point on the concentration scale where inhibition reaches its midpoint.
